Source: the NIST ThermoML archive (doi:10.1021/je034087q)
Numbers after ± are expanded uncertainties.

Test: xn = mol fraction of the nth substance listed
Conditions: 323.15 K, Fluid (supercritical or subcritical phases)

CCCCC [pentane] + O=C=O
mass density (2770 kPa, x2 = 0.214): 612 ± 4 kg/m3 | mass density (3730 kPa, x2 = 0.36): 633 ± 4 kg/m3 | mass density (3800 kPa, x2 = 0.214): 617 ± 4 kg/m3 | mass density (4510 kPa, x2 = 0.36): 635 ± 4 kg/m3 | mass density (5380 kPa, x2 = 0.36): 636 ± 4 kg/m3 | mass density (5920 kPa, x2 = 0.214): 623 ± 4 kg/m3 | mass density (6240 kPa, x2 = 0.36): 640 ± 4 kg/m3 | mass density (6870 kPa, x2 = 0.671): 707 ± 4 kg/m3 | mass density (7170 kPa, x2 = 0.36): 643 ± 4 kg/m3 | mass density (7390 kPa, x2 = 0.791): 655 ± 4 kg/m3 | mass density (7500 kPa, x2 = 0.671): 713 ± 4 kg/m3 | mass density (7530 kPa, x2 = 0.214): 627 ± 4 kg/m3 | mass density (7770 kPa, x2 = 0.791): 663 ± 4 kg/m3 | mass density (8020 kPa, x2 = 0.87): 577 ± 4 kg/m3 | mass density (8150 kPa, x2 = 0.36): 645 ± 4 kg/m3 | mass density (8150 kPa, x2 = 0.87): 584 ± 4 kg/m3 | mass density (8220 kPa, x2 = 0.916): 454 ± 3 kg/m3 | mass density (8230 kPa, x2 = 0.916): 458 ± 3 kg/m3 | mass density (8240 kPa, x2 = 0.916): 460 ± 3 kg/m3 | mass density (8240 kPa, x2 = 0.939): 352 ± 2 kg/m3 | mass density (8260 kPa, x2 = 0.87): 590 ± 4 kg/m3 | mass density (8270 kPa, x2 = 0.916): 468 ± 3 kg/m3 | mass density (8270 kPa, x2 = 0.939): 356 ± 2 kg/m3 | mass density (8280 kPa, x2 = 0.791): 670 ± 4 kg/m3 | mass density (8290 kPa, x2 = 0.939): 358 ± 2 kg/m3 | mass density (8310 kPa, x2 = 0.939): 361 ± 2 kg/m3 | mass density (8320 kPa, x2 = 0.916): 475 ± 3 kg/m3 | mass density (8330 kPa, x2 = 0.939): 363 ± 2 kg/m3 | mass density (8370 kPa, x2 = 0.671): 719 ± 4 kg/m3 | mass density (8370 kPa, x2 = 0.916): 483 ± 3 kg/m3 | mass density (8380 kPa, x2 = 0.939): 368 ± 2 kg/m3 | mass density (8390 kPa, x2 = 0.901): 515 ± 3 kg/m3 | mass density (8410 kPa, x2 = 0.916): 491 ± 3 kg/m3 | mass density (8420 kPa, x2 = 0.87): 597 ± 4 kg/m3 | mass density (8420 kPa, x2 = 0.939): 375 ± 2 kg/m3 | mass density (8430 kPa, x2 = 0.901): 520 ± 3 kg/m3 | mass density (8450 kPa, x2 = 0.916): 499 ± 3 kg/m3 | mass density (8460 kPa, x2 = 0.901): 524 ± 3 kg/m3 | mass density (8460 kPa, x2 = 0.939): 380 ± 2 kg/m3 | mass density (8500 kPa, x2 = 0.901): 529 ± 3 kg/m3 | mass density (8500 kPa, x2 = 0.916): 508 ± 3 kg/m3 | mass density (8500 kPa, x2 = 0.939): 386 ± 2 kg/m3 | mass density (8530 kPa, x2 = 0.901): 533 ± 3 kg/m3 | mass density (8540 kPa, x2 = 0.939): 393 ± 2 kg/m3 | mass density (8550 kPa, x2 = 0.87): 602 ± 4 kg/m3 | mass density (8570 kPa, x2 = 0.901): 538 ± 3 kg/m3 | mass density (8570 kPa, x2 = 0.916): 517 ± 3 kg/m3 | mass density (8570 kPa, x2 = 0.939): 399 ± 3 kg/m3 | mass density (8620 kPa, x2 = 0.901): 542 ± 3 kg/m3 | mass density (8620 kPa, x2 = 0.939): 406 ± 3 kg/m3 | mass density (8650 kPa, x2 = 0.916): 527 ± 3 kg/m3 | mass density (8660 kPa, x2 = 0.939): 413 ± 3 kg/m3 | mass density (8670 kPa, x2 = 0.901): 548 ± 3 kg/m3 | mass density (8700 kPa, x2 = 0.939): 420 ± 3 kg/m3 | mass density (8710 kPa, x2 = 0.87): 610 ± 4 kg/m3 | mass density (8710 kPa, x2 = 0.901): 552 ± 3 kg/m3 | mass density (8710 kPa, x2 = 0.916): 536 ± 3 kg/m3 | mass density (8740 kPa, x2 = 0.939): 428 ± 3 kg/m3 | mass density (8760 kPa, x2 = 0.901): 558 ± 4 kg/m3 | mass density (8810 kPa, x2 = 0.916): 546 ± 3 kg/m3 | mass density (8810 kPa, x2 = 0.939): 436 ± 3 kg/m3 | mass density (8830 kPa, x2 = 0.901): 562 ± 4 kg/m3 | mass density (8850 kPa, x2 = 0.939): 444 ± 3 kg/m3 | mass density (8860 kPa, x2 = 0.791): 681 ± 4 kg/m3 | mass density (8890 kPa, x2 = 0.901): 568 ± 4 kg/m3 | mass density (8890 kPa, x2 = 0.939): 453 ± 3 kg/m3 | mass density (8920 kPa, x2 = 0.87): 619 ± 4 kg/m3 | mass density (8930 kPa, x2 = 0.916): 556 ± 3 kg/m3 | mass density (8950 kPa, x2 = 0.939): 461 ± 3 kg/m3 | mass density (8980 kPa, x2 = 0.901): 573 ± 4 kg/m3 | mass density (9010 kPa, x2 = 0.939): 470 ± 3 kg/m3 | mass density (9050 kPa, x2 = 0.901): 579 ± 4 kg/m3 | mass density (9070 kPa, x2 = 0.916): 568 ± 4 kg/m3 | mass density (9070 kPa, x2 = 0.939): 479 ± 3 kg/m3 | mass density (9120 kPa, x2 = 0.87): 624 ± 4 kg/m3 | mass density (9140 kPa, x2 = 0.901): 583 ± 4 kg/m3 | mass density (9140 kPa, x2 = 0.939): 489 ± 3 kg/m3 | mass density (9210 kPa, x2 = 0.939): 500 ± 3 kg/m3 | mass density (9230 kPa, x2 = 0.901): 590 ± 4 kg/m3 | mass density (9240 kPa, x2 = 0.916): 579 ± 4 kg/m3 | mass density (9280 kPa, x2 = 0.36): 647 ± 4 kg/m3 | mass density (9300 kPa, x2 = 0.939): 511 ± 3 kg/m3 | mass density (9350 kPa, x2 = 0.901): 595 ± 4 kg/m3
